Target: T1, STAT5a (Homo sapiens, UniProt P42229)
T1 sequence (P42229 1-794): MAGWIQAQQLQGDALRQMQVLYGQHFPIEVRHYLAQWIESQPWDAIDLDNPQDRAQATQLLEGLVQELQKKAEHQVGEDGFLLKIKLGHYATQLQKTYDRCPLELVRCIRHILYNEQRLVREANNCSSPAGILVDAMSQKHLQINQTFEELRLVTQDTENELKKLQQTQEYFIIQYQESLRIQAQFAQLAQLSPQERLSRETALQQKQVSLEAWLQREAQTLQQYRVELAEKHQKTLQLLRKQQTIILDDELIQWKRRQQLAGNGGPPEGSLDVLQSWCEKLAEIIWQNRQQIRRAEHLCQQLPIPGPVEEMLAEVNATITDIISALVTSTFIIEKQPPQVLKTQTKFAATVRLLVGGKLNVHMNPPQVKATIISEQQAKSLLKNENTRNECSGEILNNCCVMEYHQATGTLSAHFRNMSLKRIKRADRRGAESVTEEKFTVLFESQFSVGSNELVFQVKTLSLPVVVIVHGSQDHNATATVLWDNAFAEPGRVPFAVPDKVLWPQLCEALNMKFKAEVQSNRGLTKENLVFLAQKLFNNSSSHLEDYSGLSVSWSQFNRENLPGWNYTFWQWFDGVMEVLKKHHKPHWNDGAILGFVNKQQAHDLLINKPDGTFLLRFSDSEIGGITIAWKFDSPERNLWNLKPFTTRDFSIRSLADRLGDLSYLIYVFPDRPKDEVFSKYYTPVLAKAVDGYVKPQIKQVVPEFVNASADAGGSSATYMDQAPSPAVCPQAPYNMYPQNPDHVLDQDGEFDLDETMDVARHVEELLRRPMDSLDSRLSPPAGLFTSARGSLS
Assay: Competitive fluorescence polarization (FP) assay, STAT5a SH2 domain
Format: binding
Settings: for Ki: Ki derived from IC50; for IC50: mean ± SD, n = 3
Procedure: Fluorescence polarization assays
Competitive fluorescence polarization assays, which measure the abilities of test compounds (dissolved in DMSO) to displace a fluorescent-labeled peptide from the SH2 domain of a STAT protein, were carried out essentially as described. Proteins were used at the following final concentrations: 23 nM or 28 nM for STAT4; between 56 nM and 91 nM for STAT1; 107 nM or 110 nM for STAT3; between 131 nM and 177 nM for STAT5a; between 62 nM and 85 nM for STAT5b; and 101 nM or 106 nM for STAT6. These concentrations represent the approximate […]
dissociation constant for peptide binding of the respective protein batches used in the assays.
The following peptides were used: 5-carboxyfluorescein-GpYLPQNID-OH for STAT4; 5-carboxyfluorescein-GpYDKPHVL for STAT1; 5-carboxyfluorescein-GpYLPQTV-NH2 for STAT3; 5-carboxyfluorescein-GpYLVLDKW for STAT5a/b, and 5-carboxyfluorescein- […]
Gp[…]-OH for STAT6. All peptides were used at a final concentration of 10 nM. The buffer consisted of 10 mM Tris (pH 8.0), 50 mM NaCl, 1 mM EDTA, 1 mM DTT, 0 .1 % Nonidet P-40 substitute, and 2 % DMSO. After incubation of protein and test compound for 1 h at room temperature, the fluorescent -labeled peptide was added. Samples were transferred to 384 - well microtiter plates and fluorescence polarization was read after an additional 60 min of incubation time. Measurements were performed in triplicate. Percent binding was calculated based on a logarithmic curve fit using OriginPro 8G software. IC 50 values were converted to Ki-values via the published equation[3] using the corresponding Excel spread sheet […]
https://websites.umich.edu/~shaomengwanglab/software/calc_ki/index.html .
Error bars represent standard deviations. Ligand efficiencies (LE) were calculated by the formula LE = -1,37 x log Ki / number of non-hydrogen atoms.[4] […]

Compound | Ki [µM] | IC50 [µM]
O=P(O)(O)Oc1ccc(-c2ccccc2)cc1 [Compound 1, para‐biphenyl phosphate] | 22 ± 2 | 42 ± 4
O=P(O)(O)Oc1ccc(-c2ccc3ccccc3c2)cc1 [Compound 6g] | 27 ± 2 | 55 ± 4
O=P(O)(O)Oc1ccc(-c2ccccc2)cc1F [Compound 6h] | 28 ± 1 | 57 ± 2
O=P(O)(O)Oc1ccc(-c2ccc3ccccc3c2)cc1F [Compound 6m] | 22 ± 1 | 45 ± 2
O=P(O)(O)C(F)(F)c1ccc(-c2ccc3ccccc3c2)cc1F [Compound 8a] | 27 ± 1 | 54 ± 3
Cc1cc(-c2ccc(C(F)(F)P(=O)(O)O)c(F)c2)cs1 [Compound 8k] | 39 ± 1 | 79 ± 2

Source: PMC12087874, “Biaryl Phosphates and Phosphonates as Selective Inhibitors of the Transcription Factor STAT4” (Angewandte Chemie (International Ed. in English), 2025)
